# Literature values, collected in US20110151497A1, “METABOLOMIC PROFILING OF PROSTATE CANCER” (THE REGENTS OF THE UNIVERSITY OF MICHIGAN, priority 2009, published 2011).
# Details: humans, isotope labeling
compound,measurement,value
CCCCCCCCCCCCCCCCCC(=O)O [stearic acid],fraction of dietary stearic acid oxidatively desaturated to oleic acid relative to fraction of palmitic acid converted to palmitoleic acid,2.4 times
